# In patent publication US7851474B2, “Dipiperazinyl ketones and related analogues” (Neurogen Corporation, priority 2005, dated 2010):
# Molecular target: T1, chimeric human H3 receptor (Homo sapiens, UniProt Q9Y5N1, E19D)
# T1 construct: made in house; host or cells: Sf9 insect cells (baculovirus infection); P2 membrane preparation
# Experiment: Chimeric human H3 receptor GTP binding assay (agonist-stimulated GTP-gamma35S binding, Example 7)
# Assay type: biochemical
# Conditions: not given
# Text: This Example illustrates a representative assay for evaluating agonist-stimulated GTP-gamma^35S binding (“GTP binding”) activity. […] This agonist-stimulated GTP binding activity can also be used to detect partial agonism mediated by antagonist compounds. A compound analyzed in this assay is referred to herein as a “test compound.”
# Four independent baculoviral stocks (one directing the expression of the chimeric human H3 receptor and three directing the expression of each of the three subunits of a heterotrimeric G-protein) are used to infect a culture of Sf9 cells as described above. P2 membranes are prepared as described above, and agonist-stimulated GTP binding on the P2 membranes is assessed using histamine (Sigma Chemical Co., St. Louis, Mo.) as agonist in order to ascertain that the receptor/G-protein-alpha-beta-gamma combination(s) yield a functional response as measured by GTP binding. P2 membranes are resuspended by Dounce homogenization (tight pestle) in GTP binding assay buffer (50 mM Tris pH 7.4, 120 mM NaCl, 5 mM MgCl2, 2 mM EGTA, 1 mg/ml BSA, 0.2 mg/ml bacitracin, 0.02 mg/ml aprotinin, 0.01 mg/ml saponin, 10 μM GDP) and added to assay tubes at a concentration of 35 μg protein/reaction tube. […] In competition experiments, non-radiolabeled test compounds are added to separate reactions at concentrations ranging from 10^−10 M to 10^−6 M along with 1 μM histamine to yield a final volume of 0.20 ml.
# Neutral antagonists are antagonists that are substantially free of inherent agonist activity, and include those test compounds that reduce the histamine-stimulated GTP binding activity towards, but not below, baseline levels. In contrast, in the absence of added histamine, inverse agonists reduce the GTP binding activity of the receptor-containing membranes below baseline.
# After a 60-min incubation at room temperature, reactions are terminated by vacuum filtration over WHATMAN GF/C filters (pre-soaked in wash buffer, 0.1% BSA) followed by washing with ice-cold wash buffer (50 mM Tris pH 7.4, 120 mM NaCl). The amount of receptor-bound (and thereby membrane-bound) GTP-gamma^35S is determined by measuring the filter-bound radioactivity, preferably by liquid scintillation spectrometry of the washed filters. […] Data is expressed as percent above basal (baseline). The results of GTP binding experiments are analyzed using SIGMAPLOT software (SPSS Inc., Chicago, Ill.).
# IC50 values are calculated by non-linear regression analysis of dose-response curves using Kaleidograph (Synergy Software, Reading, Pa.).
# T1 sequence (Q9Y5N1 with tags, fused parts or gaps E19D): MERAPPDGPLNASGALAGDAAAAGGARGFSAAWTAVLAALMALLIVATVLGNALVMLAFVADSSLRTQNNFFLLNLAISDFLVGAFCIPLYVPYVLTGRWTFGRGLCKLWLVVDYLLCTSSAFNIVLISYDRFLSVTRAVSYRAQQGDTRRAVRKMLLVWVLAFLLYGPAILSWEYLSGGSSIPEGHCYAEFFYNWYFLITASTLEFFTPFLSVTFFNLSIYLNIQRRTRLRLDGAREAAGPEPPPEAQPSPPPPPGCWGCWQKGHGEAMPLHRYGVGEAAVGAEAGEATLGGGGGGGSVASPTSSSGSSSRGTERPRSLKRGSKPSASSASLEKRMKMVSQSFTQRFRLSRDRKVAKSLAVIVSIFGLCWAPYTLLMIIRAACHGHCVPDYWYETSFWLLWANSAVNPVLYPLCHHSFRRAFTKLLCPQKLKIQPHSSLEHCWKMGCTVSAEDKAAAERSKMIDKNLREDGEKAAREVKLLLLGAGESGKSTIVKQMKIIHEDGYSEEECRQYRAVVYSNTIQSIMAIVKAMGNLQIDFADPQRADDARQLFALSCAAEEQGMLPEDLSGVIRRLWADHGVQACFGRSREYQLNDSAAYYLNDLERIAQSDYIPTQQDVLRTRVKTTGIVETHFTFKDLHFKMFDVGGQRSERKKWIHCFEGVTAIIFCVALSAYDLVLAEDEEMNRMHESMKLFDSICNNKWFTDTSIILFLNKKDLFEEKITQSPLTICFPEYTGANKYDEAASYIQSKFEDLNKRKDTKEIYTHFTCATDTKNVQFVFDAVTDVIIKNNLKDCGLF
row,SMILES,Ki
1,"CCN1CCN(C(=O)CN2CCN(c3ccc(Cl)cc3)CC2)CC1 [Compound 359, 1-(4-chlorophenyl)-4-[2-(4-ethylpiperazin-1-yl)-2-oxoethyl]piperazine]",< 1000 nM

# Same assay, conditions: assay of Example 7; symbol * in column headed Ki of Table II; read-out: Ki
row,Ki,SMILES
1,< 1000 nM,"O=C(CN1CCN(c2ccc(-c3ccc(Cl)c(F)c3)cc2)CC1)N1CCN(C2CCC2)CC1 [Compound 343, 1-(4′-chloro-3′-fluorobiphenyl-4-yl)-4-[2-(4-cyclobutylpiperazin-1-yl)-2-oxoethyl]piperazine]"
2,< 1000 nM,"COc1cc(N2CCN(CC(=O)N3CCN(C4CCC4)CC3)CC2)ccc1Cl [Compound 344, 1-(4-chloro-3-methoxyphenyl)-4-[2-(4-cyclobutylpiperazin-1-yl)-2-oxoethyl]piperazine]"
3,< 1000 nM,"COc1cc(N2CCN(CC(=O)N3CCN(C4CCCCC4)CC3)CC2)ccc1Cl [Compound 345, 1-(4-chloro-3-methoxyphenyl)-4-[2-(4-cyclohexylpiperazin-1-yl)-2-oxoethyl]piperazine]"
4,< 1000 nM,"COc1cc(N2CCN(CC(=O)N3CCN(C4CCCC4)CC3)CC2)ccc1Cl [Compound 346, 1-(4-chloro-3-methoxyphenyl)-4-[2-(4-cyclopentylpiperazin-1-yl)-2-oxoethyl]piperazine]"
5,< 1000 nM,"COc1cc(N2CCN(CC(=O)N3CCN(C(C)C)CC3)CC2)ccc1Cl [Compound 347, 1-(4-chloro-3-methoxyphenyl)-4-[2-(4-isopropylpiperazin-1-yl)-2-oxoethyl]piperazine]"
6,< 1000 nM,"Cc1cc(N2CCN(CC(=O)N3CCN(C4CCC4)CC3)CC2)ccc1Cl [Compound 349, 1-(4-chloro-3-methylphenyl)-4-[2-(4-cyclobutylpiperazin-1-yl)-2-oxoethyl]piperazine]"
7,< 1000 nM,"Cc1cc(N2CCN(CC(=O)N3CCN(C4CCCCC4)CC3)CC2)ccc1Cl [Compound 350, 1-(4-chloro-3-methylphenyl)-4-[2-(4-cyclohexylpiperazin-1-yl)-2-oxoethyl]piperazine]"
8,< 1000 nM,"Cc1cc(N2CCN(CC(=O)N3CCN(C4CCCC4)CC3)CC2)ccc1Cl [Compound 351, 1-(4-chloro-3-methylphenyl)-4-[2-(4-cyclopentylpiperazin-1-yl)-2-oxoethyl]piperazine]"
9,< 1000 nM,"CCN1CCN(C(=O)CN2CCN(c3ccc(Cl)c(C)c3)CC2)CC1 [Compound 352, 1-(4-chloro-3-methylphenyl)-4-[2-(4-ethylpiperazin-1-yl)-2-oxoethyl]piperazine]"
10,< 1000 nM,"Cc1cc(N2CCN(CC(=O)N3CCN(C(C)C)CC3)CC2)ccc1Cl [Compound 353, 1-(4-chloro-3-methylphenyl)-4-[2-(4-isopropylpiperazin-1-yl)-2-oxoethyl]piperazine]"
11,< 1000 nM,"O=C(CN1CCN(c2ccc(-c3ccc(Cl)cc3)cc2)CC1)N1CCN(C2CCC2)CC1 [Compound 355, 1-(4′-chlorobiphenyl-4-yl)-4-[2-(4-cyclobutylpiperazin-1-yl)-2-oxoethyl]piperazine]"
12,< 1000 nM,O=C(CN1CCN(c2ccc(Cl)cc2)CC1)N1CCN(C2CCC2)CC1 [Compound 356]
13,< 1000 nM,"O=C(CN1CCN(c2ccc(Cl)cc2)CC1)N1CCN(C2CCCCC2)CC1 [Compound 357, 1-(4-chlorophenyl)-4-[2-(4-cyclohexylpiperazin-1-yl)-2-oxoethyl]piperazine]"
14,< 1000 nM,"O=C(CN1CCN(c2ccc(Cl)cc2)CC1)N1CCN(C2CCCC2)CC1 [Compound 358, 1-(4-chlorophenyl)-4-[2-(4-cyclopentylpiperazin-1-yl)-2-oxoethyl]piperazine]"
15,< 1000 nM,"CC(C)N1CCN(C(=O)CN2CCN(c3ccc(Cl)cc3)CC2)CC1 [Compound 360, 1-(4-chlorophenyl)-4-[2-(4-isopropylpiperazin-1-yl)-2-oxoethyl]piperazine]"
16,< 1000 nM,"CC(C)N1CCN(C(=O)CN2CCN(c3ccc(F)cc3)CC2)CC1 [Compound 361, 1-(4-fluorophenyl)-4-[2-(4-isopropylpiperazin-1-yl)-2-oxoethyl]piperazine]"
